Tests used:
Type in all cases: cell-based
MOLT-4 cells = assay: MOLT-4 cell viability, MTT assay; details: Homo sapiens, MOLT-4, 48 h
Procedure, shortened: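 MOLT-4 cells in RPMI 1640 with 10% FBS were exposed to compounds for 48 h at 9 concentrations (3.16-fold dilutions, triplicates). After 4 h with MTT and overnight SDS/HCl solubilisation, absorbance was read at 540 nm. IC50 came from four-parameter fits versus control, as the mean of ≥2 independent experiments.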

COR-L105 = assay: CellTiter-Glo proliferation assay, COR-L105; details: COR-L105, 5 days; for Emax: read-out: COR-L105 Span (max)
Procedure, shortened: (§1)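 Both lines grown in RPMI-1640 + 10% FBS. COR-L105 plated flat at 1,000 cells/well overnight; NCI-H1650 grown as spheroids, 3,000 cells/well, 72 h. Compounds at 0.508 nM-10 μM final for 5 days, 37° C. ATP read by CellTiter-Glo (3D version for spheroids); IC50 from variable-slope fit normalized to untreated cells.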

NCI-H1650 = assay: CellTiter-Glo 3D proliferation assay, NCI-H1650 spheroids; details: 5 days; for Emax: read-out: NCI-H1650 Span (Amax)
Procedure, shortened: as §1

Row | SMILES | IC50 (MOLT-4 cells) [nM] | IC50 (COR-L105) [nM] | IC50 (COR-L105; Homo sapiens, COR-L105, 120 h) [nM] | Emax (COR-L105; Homo sapiens, COR-L105, 120 h) [%] | IC50 (NCI-H1650) [nM] | IC50 (NCI-H1650; Homo sapiens, NCI-H1650, 120 h) [nM] | Emax (NCI-H1650; Homo sapiens, NCI-H1650, 120 h) [%]
1 | Cc1ncsc1-c1ccc(CNC(=O)C2C[C@@H](O)CN2C(=O)C(NC(=O)CCCCCC(=O)N2CCN(CC#Cc3ccc(OCCCc4sc(N5CCCc6c5nnc(Nc5nc7ccccc7s5)c6C)nc4C(=O)O)c(F)c3)CC2)C(C)(C)C)cc1 (stereo in doubt) [Example 15, 2-[3-(1,3-benzothiazol-2-ylamino)-4-methyl-6,7-dihydro-5H-pyrido[2,3-c]pyridazin-8-yl]-5-[3-[2-fluoro-4-[3-[4-[7-[[(1S)-1-[(2S,4R)-4-hydroxy-2-[[4-(4-methylthiazol-5-yl)phenyl]methylcarbamoyl]pyrrolidine-1-carbonyl]-2,2-dimethyl-propyl]amino]-7-oxo-heptanoyl]piperazin-1-yl]prop-1-ynyl]phenoxy]propyl] thiazole-4-carboxylic acid] | 5.67 |  |  |  |  |  | 
2 | Cc1ncsc1-c1ccc(CNC(=O)[C@@H]2CC(O)CN2C(=O)C(NC(=O)CCCCCCC(=O)N2CCN(CCOC34CC5(C)CC(C)(CC(Cn6ncc(-c7ccc(N8CCCc9c8nnc(Nc8nc%10ccccc%10s8)c9C)nc7C(=O)O)c6C)(C5)C3)C4)CC2)C(C)(C)C)cc1 (stereo in doubt) [Example 24, 6-[3-(1,3-benzothiazol-2-ylamino)-4-methyl-6,7-dihydro-5H-pyrido[2,3-c]pyridazin-8-yl]-3-[1-[[3-[2-[4-[8-[[(1S)-1-[(2S,4R)-4-hydroxy-2-[[4-(4-methylthiazol-5-yl)phenyl]methylcarbamoyl]pyrrolidine-1-carbonyl]-2,2-dimethyl-propyl]amino]-8-oxo-octanoyl]piperazin-1-yl]ethoxy]-5,7-dimethyl-1-adamantyl]methyl]-5-methyl-pyrazol-4-yl]pyridine-2-carboxylic acid] | 2.64 | 348 | 500 | 104 | 92.9 | 95 | 89.1
3 | Cc1ncsc1-c1ccc([C@H](C)NC(=O)C2CC(O)CN2C(=O)C(NC(=O)CCCCCCCCCCCN2CCN(CC#Cc3ccc(OCCCc4sc(N5CCCc6c5nnc(Nc5nc7ccccc7s5)c6C)nc4C(=O)O)c(F)c3)CC2)C(C)(C)C)cc1 (stereo in doubt) [Example 31, 2-[3-(1,3-benzothiazol-2-ylamino)-4-methyl-6,7-dihydro-5H-pyrido[2,3-c]pyridazin-8-yl]-5-[3-[2-fluoro-4-[3-[4-[12-[[(1S)-1-[(2S,4R)-4-hydroxy-2-[[(1S)-1-[4-(4-methylthiazol-5-yl)phenyl]ethyl]carbamoyl]pyrrolidine-1-carbonyl]-2,2-dimethyl-propyl]amino]-12-oxo-dodecyl]piperazin-1-yl]prop-1-ynyl]phenoxy]propyl] thiazole-4-carboxylic acid] | 8.04 |  |  |  |  |  | 
4 | Cc1ncsc1-c1ccc([C@H](C)NC(=O)[C@@H]2C[C@@H](O)CN2C(=O)[C@@H](NC(=O)CCCCCCCCCCCCCCCN(C)CCOC23CC4(C)CC(C)(CC(Cn5ncc(-c6ccc(N7CCCc8c7nnc(Nc7nc9ccccc9s7)c8C)nc6C(=O)O)c5C)(C4)C2)C3)C(C)(C)C)cc1 [Example 1, 6-[3-(1,3-benzothiazol-2-ylamino)-4-methyl-6,7-dihydro-5H-pyrido[2,3-c]pyridazin-8-yl]-3-[1-[[3-[2-[[16-[[(1S)-1-[(2S,4R)-4-hydroxy-2-[[(1S)-1-[4-(4-methylthiazol-5-yl)phenyl]ethyl]carbamoyl]pyrrolidine-1-carbonyl]-2,2-dimethyl-propyl]amino]-16-oxo-hexadecyl]-methyl-amino]ethoxy]-5,7-dimethyl-1-adamantyl]methyl]-5-methyl-pyrazol-4-yl]pyridine-2-carboxylic acid] | 0.636 |  |  |  |  |  | 
5 | Cc1ncsc1-c1ccc([C@H](C)NC(=O)[C@@H]2C[C@@H](O)CN2C(=O)[C@@H](NC(=O)CCCCCCCCN(C)CCOC23CC4(C)CC(C)(CC(Cn5ncc(-c6ccc(N7CCCc8c7nnc(Nc7nc9ccccc9s7)c8C)nc6C(=O)O)c5C)(C4)C2)C3)C(C)(C)C)cc1 [Example 5, 6-[3-(1,3-benzothiazol-2-ylamino)-4-methyl-6,7-dihydro-5H-pyrido[2,3-c]pyridazin-8-yl]-3-[1-[[3-[2-[[9-[[(1S)-1-[(2S,4R)-4-hydroxy-2-[[(1S)-1-[4-(4-methylthiazol-5-yl)phenyl]ethyl]carbamoyl]pyrrolidine-1-carbonyl]-2,2-dimethyl-propyl]amino]-9-oxo-nonyl]-methyl-amino]ethoxy]-5,7-dimethyl-1-adamantyl]methyl]-5-methyl-pyrazol-4-yl]pyridine-2-carboxylic acid] | 3.58 |  |  |  |  |  | 
6 | Cc1ncsc1-c1ccc([C@H](C)NC(=O)[C@@H]2C[C@@H](O)CN2C(=O)[C@@H](NC(=O)CCCCCCCN(C)CCOC23CC4(C)CC(C)(CC(Cn5ncc(-c6ccc(N7CCCc8c7nnc(Nc7nc9ccccc9s7)c8C)nc6C(=O)O)c5C)(C4)C2)C3)C(C)(C)C)cc1 [Example 6, 6-[3-(1,3-benzothiazol-2-ylamino)-4-methyl-6,7-dihydro-5H-pyrido[2,3-c]pyridazin-8-yl]-3-[1-[[3-[2-[[8-[[(1S)-1-[(2S,4R)-4-hydroxy-2-[[(1S)-1-[4-(4-methylthiazol-5-yl)phenyl]ethyl]carbamoyl]pyrrolidine-1-carbonyl]-2,2-dimethyl-propyl]amino]-8-oxo-octyl]-methyl-amino]ethoxy]-5,7-dimethyl-1-adamantyl]methyl]-5-methyl-pyrazol-4-yl]pyridine-2-carboxylic acid] | 6.57 |  |  |  |  |  | 
7 | Cc1ncsc1-c1ccc([C@H](C)NC(=O)[C@@H]2C[C@@H](O)CN2C(=O)[C@@H](NC(=O)CCCCCCCCCCC(=O)N2CCN(CCOC34CC5(C)CC(C)(CC(Cn6ncc(-c7ccc(N8CCCc9c8nnc(Nc8nc%10ccccc%10s8)c9C)nc7C(=O)O)c6C)(C5)C3)C4)CC2)C(C)(C)C)cc1 [Example 47, 6-(3-(benzo[d]thiazol-2-ylamino)-4-methyl-6,7-dihydropyrido [2,3-c]pyridazin-8(5H)-yl)-3-(1-(((1r,3s,5R,7S)-3-(2-(4-(12-(((S)-1-((2S,4R)-4-hydroxy-2-(((S)-1-(4-(4-methylthiazol-5-yl)phenyl)ethyl)carbamoyl)pyrrolidin-1-yl)-3,3-dimethyl-1-oxobutan-2-yl)amino)-12-oxododecanoyl)piperazin-1-yl)ethoxy)-5,7-dimethyladamantan-1-yl)methyl)-5-methyl-1H-pyrazol-4-yl)picolinic acid] |  |  | 228 | 97.6 |  | 12.5 | 97.1
8 | Cc1ncsc1-c1ccc(CNC(=O)[C@@H]2C[C@@H](O)CN2C(=O)[C@@H](NC(=O)CCCCCCCCCCC(=O)N2CCN(CC#Cc3ccc(OCCCc4sc(N5CCCc6c5nnc(Nc5nc7ccccc7s5)c6C)nc4C(=O)O)c(F)c3)CC2)C(C)(C)C)cc1 [Example 48, 2-(3-(benzo[d]thiazol-2-ylamino)-4-methyl-6,7-dihydropyrido [2,3-c]pyridazin-8(5H)-yl)-5-(3-(2-fluoro-4-(3-(4-(12-(((S)-1-((2S,4R)-4-hydroxy-2-((4-(4-methylthiazol-5-yl)benzyl)carbamoyl)pyrrolidin-1-yl)-3,3-dimethyl-1-oxobutan-2-yl)amino)-12-oxododecanoyl)piperazin-1-yl)prop-1-yn-1-yl)phenoxy)propyl)thiazole-4-carboxylic acid] |  |  | 111 | 94 |  | 23.7 | 88.6
9 | Cc1ncsc1-c1ccc([C@H](C)NC(=O)[C@@H]2C[C@@H](O)CN2C(=O)[C@@H](NC(=O)CCCCCCCCCCCN2CCN(CC#Cc3ccc(OCCCc4sc(N5CCCc6c5nnc(Nc5nc7ccccc7s5)c6C)nc4C(=O)O)c(F)c3)CC2)C(C)(C)C)cc1 [Example 51, 2-(3-(benzo[d]thiazol-2-ylamino)-4-methyl-6,7-dihydropyrido [2,3-c]pyridazin-8(5H)-yl)-5-(3-(2-fluoro-4-(3-(4-(12-(((S)-1-((2S,4R)-4-hydroxy-2-(((S)-1-(4-(4-methylthiazol-5-yl)phenyl)ethyl)carbamoyl)pyrrolidin-1-yl)-3,3-dimethyl-1-oxobutan-2-yl)amino)-12-oxododecyl)piperazin-1-yl)prop-1-yn-1-yl)phenoxy)propyl)thiazole-4-carboxylic acid] |  |  | 37.6 | 72.8 |  | 4.23 | 90.8
